Data on 4 compounds can be found in patent publication US5739131A, “Benzene derivatives and pharmaceutical composition” (Kureha Chemical Industry Co., Ltd., priority 1994, dated 1998).

The subject of one series is mice. Nature of the series: Acute toxicity, single oral dose. The settings on record: mouse, in vivo, po, 500 mg/kg. Type of series: in vivo. As to the method: Five-week-old ICR female mice (5 mice per group) were bred for acclimation for a week. Then, the compounds of the present invention were dissolved or dispersed in an aqueous solution of 0.5% methylcellulose, and orally administered to the mice in a single dosage (500 mg/kg).

Series [1] concerns the target T1, angiotensin II receptor subtype 1 (AT1) (Oryctolagus cuniculus, UniProt P34976).
T1 construct: receptor: from adrenal glands in rabbits; from tissue; host or cells: rabbit adrenal glands
T1 sequence (P34976 1-359): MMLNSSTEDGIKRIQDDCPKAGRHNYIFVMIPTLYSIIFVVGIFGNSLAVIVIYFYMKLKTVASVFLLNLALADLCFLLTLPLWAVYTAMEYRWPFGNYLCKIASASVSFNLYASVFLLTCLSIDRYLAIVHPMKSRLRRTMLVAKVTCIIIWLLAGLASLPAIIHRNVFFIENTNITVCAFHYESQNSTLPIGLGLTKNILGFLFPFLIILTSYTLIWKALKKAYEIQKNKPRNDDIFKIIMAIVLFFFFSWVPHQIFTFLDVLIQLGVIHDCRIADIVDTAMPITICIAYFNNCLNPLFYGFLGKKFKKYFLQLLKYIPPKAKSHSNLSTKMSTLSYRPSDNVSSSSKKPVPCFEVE
Nature of the series: Binding assay, angiotensin II receptor subtype 1 (AT1). Details: species or system rabbit (adrenal glands). The settings on record: 100 μM, AT1, rabbit adrenal glands.

In series [2] the target is T2, angiotensin II receptor subtype 2 (AT2) (Bos taurus, UniProt G5E6F7).
T2 construct: receptor: from cerebellar cortex in bovine; from tissue; host or cells: bovine cerebellar cortex
T2 sequence (G5E6F7 1-362): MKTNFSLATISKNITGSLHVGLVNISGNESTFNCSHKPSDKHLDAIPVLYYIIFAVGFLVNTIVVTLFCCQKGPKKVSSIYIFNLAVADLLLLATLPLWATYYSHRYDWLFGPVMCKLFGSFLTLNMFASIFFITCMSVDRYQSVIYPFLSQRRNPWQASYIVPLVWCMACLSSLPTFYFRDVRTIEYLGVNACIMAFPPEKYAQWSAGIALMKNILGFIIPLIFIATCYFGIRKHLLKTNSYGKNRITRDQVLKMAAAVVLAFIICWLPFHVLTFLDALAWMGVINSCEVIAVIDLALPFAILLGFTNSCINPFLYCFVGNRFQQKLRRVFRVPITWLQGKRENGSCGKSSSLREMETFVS
In words: Binding assay, angiotensin II receptor subtype 2 (AT2). Further details: species or system bovine (cerebellar cortex). Particulars: 100 μM, AT2, bovine cerebellar cortex, 37° C. 1 hour; read-out: Binding inhibition % in 100 μm, AT2.

Series [3] relates to kidney disease model rats. In words: Action to depress blood pressure (tail cuff method). Type of series: in vivo, Sprague-Dawley female rats. The settings on record: 20 mg/kg per os; for Blood pressure: systolic, average, two days from administration, control (water) 203.
The test system of series [4] is kidney disease model rats. In words: Renal function indicatory value (action to kidney diseases). Type of series: in vivo, Sprague-Dawley female rats. Particulars: 20 mg/kg/day per os, two weeks; for Creatinine clearance: 24 hours urine, control 0.20; for Creatinine / Urea nitrogen: serum; for Creatinine: control 2.0; for Urea nitrogen: control 100.
In series [5] the test system is kidney disease model rats. Nature of the series: Action to survival time of kidney diseased animals. The settings on record: 20 mg/kg/day per os, observation eight weeks (upper limit); control 5.0. The class given is in vivo, Sprague-Dawley female rats.
In the next series the test system is hyperlipemia model rats. Particulars: cited from earlier work.
The next series relates to renal dysfunction. The settings on record: in vivo; cited from earlier work.

For the compound `CCCCC(=O)N(Cc1ccc(-c2nn[nH]n2)cc1)c1cc(C(=O)N2CCOCC2)ccc1N(C)C` [Compound No. 604, 4-dimethylamino-3-N-[[4-(1H-tetrazol-5-yl)phenylmethyl]valeramido]benzoic acid morpholide], the “Number of deaths/number of survivals” value with mice is 0/5. In series [1], at 100 µM the inhibition was 15%. Also, the inhibition (as a rule, the relative decrease from the control value, in per cent) at 100 µM in series [2] was found to be 0%. The Blood pressure in series [3] is given as 200 mmHg. In series [4], this compound returned a Creatinine clearance of 0.28 mL/min, a Creatinine of 1.8 mg/dL and a Urea nitrogen of 75 mg/dL. For the same compound, the Average survival time in series [5] is 7.0 weeks.
Take `CCCCc1nc(Cl)c(CO)n1Cc1ccc(-c2ccccc2-c2nnn[nH]2)cc1` [DuP753, 2-butyl-4-chloro-5-(hydroxymethyl)-1-[[2'-(1H-tetrazol-5-yl)biphenyl-4-yl]methyl]imidazole, reference compound]: the “action to depress the blood pressure” value in series [3] (in comparison with control group) is “clearly showed the action to depress the blood pressure”. Moreover, in series [3], the Blood pressure was 135 mmHg. In series [4], this compound registered a Creatinine clearance of 0.32 mL/min, a Creatinine of 1.6 mg/dL and a Urea nitrogen of 80 mg/dL. Also, the Average survival time in series [5] is 6.9 weeks. Besides, in the series on hyperlipemia model rats (large dose), the Blood pressure result is “an evident reduction of blood pressure was observed”. In addition, in the series on hyperlipemia model rats (lower dose), the “effect to blood pressure” value is listed as “without practical effect to blood pressure” and the kidney disease improvement result was “the kidney disease was improved in a lower dose”.
As to `C[C@H](CS)C(=O)N1CCC[C@H]1C(=O)O` [captoril], in the series with renal dysfunction, the Blood pressure entry was “blood pressure is lowered” and the “progress of renal dysfunction” value is given as “the progress of renal dysfunction is improved”.
As for `CCOC(=O)[C@H](CCc1ccccc1)N[C@@H](C)C(=O)N1CCC[C@H]1C(=O)O` [enalapril], in the series with renal dysfunction, the Blood pressure entry was “blood pressure is lowered” and the “progress of renal dysfunction” value was “the progress of renal dysfunction is improved”.
